According to patent publication US20240197928A1, “SODIUM-DEPENDENT GLUCOSE TRANSPORTER 2 AS A DIAGNOSTIC AND THERAPEUTIC TARGET FOR PRE-MALIGNANT LESIONS” (THE REGENTS OF THE UNIVERSITY OF CALIFORNIA, priority 2019, published 2024):

Experiments:
[1] = target: SGLT2 (Homo sapiens, UniProt P31639); settings: reference 39; cited from earlier work
[2] = test system: patient-derived xenografts of human LADC; assay: Therapeutic trial in patient-derived xenografts of human LADC; format: in vivo, NSG mice
Source text: Patient-derived xenografts. The tumor samples were obtained from surgically resected specimens after informed consent under the UCLA Lung SPORE (PDX #004 and #011) or the Long Beach Memorial Hospital Institutional Review Board protocol (PDX #013). One of the PDXs (#186) was purchased from the Jackson laboratories. PDXs were established and passaged in NSG mice. NSG mice were procured from the UCLA Radiation Oncology breeding colony. For each mouse, two small pieces of tumor tissue (4 mm^3) were implanted subcutaneously in the flank regions.
Patient-derived xenografts. The mice were randomized in two therapeutic groups (same as for the trials in GEMMs): placebo and canagliflozin (30 mg/kg per day) The number of mice per group was four for PDX #011, eight for PDX #013, three for PDX #004, and five for PDX #186; each mouse was inoculated with two tumors (one tumor on each flank). Some of the tumors of PDX #011 developed soft tissue metastases in the axillary regions, and these were counted as separate tumors. Overall, 38 tumors were included in the placebo and 39 tumors in the canagliflozin group. […] The tumor volumes at 2 weeks were counted as final tumor volumes.
Mice were imaged by Me4FDG and FDG PET/CT before treatment and 2 weeks after starting treatment. […] The mice were sacrificed, and the tumors were analyzed after 1 month of treatment. […]

[3] = test system: lung tumors in KPluc mice; assay: Therapeutic trials in the KPluc genetically engineered mouse model of LADC; settings: vs placebo
[4] = test system: patient-derived xenografts of human LADC; assay: Me4FDG and FDG microPET in PDXs before and 2 weeks after the beginning of treatment; format: in vivo, NSG mice; settings: canagliflozin 30 mg/kg per day
Description: For the microPET in PDXs, a subset of the mice (PDXs #004, #013, and #186) received both Me4FDG and FDG PET scans the day before and 2 weeks after the beginning of treatment to evaluate the response of glucose transporter activity to the treatment.
The animals were anesthetized with 1.5% (v/v) isoflurane in oxygen, were given a dose of 100 μCi of Me4FDG or FDG via tail vein injection, and were maintained under anesthesia for 1 hour of unconscious uptake. The mice were then immobilized on the imaging bed and received a 10-min static PET scan followed by a CT scan. Each mouse received two different PET scans with the two tracers (Me4FDG and FDG) on consecutive days to allow for tracer decay. The equipments used were Focus 220 microPET scanner (Concorde Microsystems) and Inveon microPET scanner (Siemens) for the microPET scans and CrumpCAT (UCLA Crump Institute) for the microCT.
The PET data were analyzed with AMIDE software version 1.0.4 (amide.sourceforge.net/) (55). […] The percentage of injected dose for each ROI was calculated by dividing the measured activity in the ROI by the total injected dose, as measured from the PET image by designing an ROI encompassing the whole mouse. […] Briefly, we evaluated the background signal for each mouse by designing a ROI corresponding to the normal lung. We then calculated the CNR for each nodule by using the following formula (31)

For `Cc1ccc([C@@H]2O[C@H](CO)[C@@H](O)[C@H](O)[C@H]2O)cc1Cc1ccc(-c2ccc(F)cc2)s1` [canagliflozin], the “effectiveness as SGLT2 inhibitor compared with dapagliflozin” value [1] is given as “more effective SGLT2 inhibitor than dapagliflozin”, the “final tumor volumes lower than the control mice” value ([2]; 30 mg/kg per day oral gavage for 1 month, four PDXs, P=0.003) is given as “about 47%” and the “geometric mean ratio of final tumor volumes, treated vs control” value ([2]; 95% confidence interval 0.36 to 0.80, P=0.003, adjusted for trial and mouse random effects) is given as 0.53. The “Tumor burden estimated by bioluminescence imaging (BLI)” value ([3]; 30 mg/kg per day oral gavage from 2 weeks after tumor induction, P<0.001) was “significantly lower”, the “onset of tumors (BLI signal up to week 8)” value ([3]; 30 mg/kg per day oral gavage, P<0.001) was “significantly delayed” and the “tumor burden by histological analysis of the lungs and measurement of tumor area” value ([3]; at 8 weeks and in the survival cohort, P<0.05) was “significantly lower tumor burden”. For the same compound, the mouse survival ([3]; treated until death, n=15 per group, P=0.0003) was “significantly prolonged”, the “Ki67 proliferation rate in solid LADCs” value [3] was “not in solid LADCs” and the “Ki67 proliferation rate in premalignant lesions” value ([3]; P=0.001) was “significantly lower”. The “FDG signal from day 0 to day 14” value [4] was “did not significantly change” and the “Me4FDG uptake from day 0 to day 14” value ([4]; P<0.001) was “significantly reduced”.
